According to ChEMBL document CHEMBL1201862, “PubChem BioAssay data set” (2004):
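Cells were grown in 96-well plates and exposed to each compound for 48 hours at five concentrations; endpoints were interpolated linearly between bracketing concentrations, or set to the highest concentration if not reached. Abbreviation: GI50, concentration required for 50% inhibition of growth.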 Active and inactive are the calls of the source. Rule as the data show it: active = GI50 up to about 1.1 µM and inactive = higher.

Experiments:
Experiment in all cases: NCI tumour cell line growth inhibition, 48 h
NCI-H460 = tested on: NCI-H460
MOLT-4 = tested on: MOLT-4
RPMI-8226 = tested on: RPMI-8226
HCC 2998 = tested on: HCC 2998
HCT-116 = tested on: HCT-116
EKVX = tested on: EKVX
A549 = tested on: A549
SF-539 = tested on: SF-539
RXF 393 = tested on: RXF 393
SW-620 = tested on: SW-620
UO-31 = tested on: UO-31
HT-29 = tested on: HT-29
SK-OV-3 = tested on: SK-OV-3
NCI-H522 = tested on: NCI-H522
KM12 = tested on: KM12
M14 = tested on: M14
HL-60 = tested on: HL-60
U-251 = tested on: U-251

Row | SMILES | GI50 (NCI-H460) | GI50 (MOLT-4) | GI50 (RPMI-8226) | GI50 (HCC 2998) | GI50 (HCT-116) | GI50 (EKVX) | GI50 (A549) | GI50 (SF-539) | GI50 (RXF 393) | GI50 (SW-620) | GI50 (UO-31) | GI50 (HT-29) | GI50 (SK-OV-3) | GI50 (NCI-H522) | GI50 (KM12) | GI50 (M14) | GI50 (HL-60) | GI50 (U-251)
1 | CC1(c2cccc3ccccc23)OC(=O)c2ccccc21 (centres undefined) | 21.1 µM (inactive) | 15.1 µM (inactive) | 19.6 µM (inactive) | 15.7 µM (inactive) | 16.9 µM (inactive) | 30.1 µM (inactive) | 16.7 µM (inactive) | 14.6 µM (inactive) | 18.5 µM (inactive) | 21 µM (inactive) | 26 µM (inactive) | 20.7 µM (inactive) | 32.5 µM (inactive) | 25.2 µM (inactive) | 25.1 µM (inactive) | 18.2 µM (inactive) | 13.4 µM (inactive) | 20 µM (inactive)
2 | C/C(=N\NC(N)=O)c1sc(-c2nc(C)c(/C(C)=N/NC(N)=O)s2)nc1C | 78.7 µM (inactive) | > 100 µM (inactive) | > 100 µM (inactive) | > 100 µM (inactive) | > 10 µM (inactive) | 21.5 µM (inactive) | > 100 µM (inactive) | > 100 µM (inactive) | > 100 µM (inactive) | – | > 100 µM (inactive) | > 100 µM (inactive) | > 100 µM (inactive) | 70.5 µM (inactive) | > 100 µM (inactive) | > 100 µM (inactive) | 40 µM (inactive) | 99.3 µM (inactive)
3 | O=C(O)CCC1(Br)CCCCC(Br)C1=O (centres undefined) | > 100 µM (inactive) | > 100 µM (inactive) | > 100 µM (inactive) | > 100 µM (inactive) | > 100 µM (inactive) | > 100 µM (inactive) | > 100 µM (inactive) | > 100 µM (inactive) | 85.9 µM (inactive) | > 100 µM (inactive) | > 10 µM (inactive) | > 100 µM (inactive) | > 100 µM (inactive) | > 100 µM (inactive) | > 10 µM (inactive) | > 100 µM (inactive) | > 100 µM (inactive) | > 100 µM (inactive)
4 | COc1ccccc1/C=C(\C#N)C(=O)c1ccccc1 | > 100 µM (inactive) | > 100 µM (inactive) | > 100 µM (inactive) | > 100 µM (inactive) | > 100 µM (inactive) | > 100 µM (inactive) | > 100 µM (inactive) | > 100 µM (inactive) | – | > 100 µM (inactive) | > 100 µM (inactive) | > 100 µM (inactive) | > 100 µM (inactive) | > 100 µM (inactive) | > 100 µM (inactive) | > 100 µM (inactive) | > 100 µM (inactive) | > 100 µM (inactive)
5 | Cc1ccc(/C=N/C23CC4CC(CC(C4)C2)C3)cc1 | > 100 µM (inactive) | > 100 µM (inactive) | > 100 µM (inactive) | > 100 µM (inactive) | > 100 µM (inactive) | > 100 µM (inactive) | > 100 µM (inactive) | > 100 µM (inactive) | > 100 µM (inactive) | > 100 µM (inactive) | – | > 100 µM (inactive) | > 100 µM (inactive) | – | > 100 µM (inactive) | > 100 µM (inactive) | > 100 µM (inactive) | > 100 µM (inactive)
6 | CC(C)(C)OC(=O)NCC(=O)OCc1ccccc1 | > 100 µM (inactive) | > 100 µM (inactive) | – | > 100 µM (inactive) | > 100 µM (inactive) | – | > 100 µM (inactive) | > 100 µM (inactive) | – | > 100 µM (inactive) | > 100 µM (inactive) | > 100 µM (inactive) | > 100 µM (inactive) | > 10 µM (inactive) | > 100 µM (inactive) | > 100 µM (inactive) | > 100 µM (inactive) | > 100 µM (inactive)
7 | c1nc2cscc2c2cscc12 | > 100 µM (inactive) | > 100 µM (inactive) | > 100 µM (inactive) | > 100 µM (inactive) | > 100 µM (inactive) | – | > 100 µM (inactive) | > 100 µM (inactive) | > 100 µM (inactive) | > 100 µM (inactive) | > 100 µM (inactive) | > 100 µM (inactive) | 37 µM (inactive) | > 100 µM (inactive) | > 100 µM (inactive) | > 100 µM (inactive) | > 100 µM (inactive) | > 100 µM (inactive)
8 | CCOC(=O)c1oc2c(OC)cc(Cl)c3c2c1CCC3 | > 100 µM (inactive) | > 100 µM (inactive) | > 100 µM (inactive) | > 100 µM (inactive) | 44.3 µM (inactive) | > 100 µM (inactive) | 59.8 µM (inactive) | > 100 µM (inactive) | 24.2 µM (inactive) | > 100 µM (inactive) | 28.6 µM (inactive) | > 100 µM (inactive) | 50.8 µM (inactive) | 29.2 µM (inactive) | > 100 µM (inactive) | > 100 µM (inactive) | > 100 µM (inactive) | 45 µM (inactive)
9 | COc1cccc(NC(=O)CSc2nnc(-c3ccc(/N=C\c4ccc(Cl)cc4)cc3)o2)c1 | 20.1 µM (inactive) | 23.4 µM (inactive) | 18.2 µM (inactive) | – | 17.2 µM (inactive) | 36.7 µM (inactive) | 27.2 µM (inactive) | – | 18.3 µM (inactive) | 20.4 µM (inactive) | 18.5 µM (inactive) | 15.6 µM (inactive) | 33.3 µM (inactive) | 15.6 µM (inactive) | 14.2 µM (inactive) | 19.4 µM (inactive) | 27.7 µM (inactive) | 17.1 µM (inactive)
10 | COc1ccc2c(c1OCC(=O)O)C(=O)C(CCC(=O)O)CC2 (centres undefined) | > 100 µM (inactive) | > 100 µM (inactive) | > 100 µM (inactive) | > 100 µM (inactive) | > 100 µM (inactive) | > 100 µM (inactive) | > 100 µM (inactive) | > 100 µM (inactive) | > 100 µM (inactive) | > 100 µM (inactive) | – | > 100 µM (inactive) | > 100 µM (inactive) | – | – | > 100 µM (inactive) | > 100 µM (inactive) | > 100 µM (inactive)
11 | C/C(CC(=O)Nc1ccc(Cl)cc1)=N\NC(N)=S | 45.5 µM (inactive) | 45.3 µM (inactive) | 61.8 µM (inactive) | 30.9 µM (inactive) | 71.4 µM (inactive) | > 100 µM (inactive) | 26.5 µM (inactive) | 34.2 µM (inactive) | > 100 µM (inactive) | > 100 µM (inactive) | – | > 100 µM (inactive) | > 100 µM (inactive) | 47.2 µM (inactive) | 21.4 µM (inactive) | 6.47 µM (inactive) | 12.8 µM (inactive) | > 100 µM (inactive)
12 | CC(=O)Oc1ccc2c(=O)c(C(C)=O)coc2c1 | > 100 µM (inactive) | > 100 µM (inactive) | > 100 µM (inactive) | – | > 100 µM (inactive) | > 100 µM (inactive) | > 100 µM (inactive) | > 100 µM (inactive) | > 100 µM (inactive) | > 100 µM (inactive) | > 100 µM (inactive) | > 100 µM (inactive) | – | > 100 µM (inactive) | > 100 µM (inactive) | > 100 µM (inactive) | > 100 µM (inactive) | > 100 µM (inactive)
13 | CCC(O)C1Cc2c(C)cc3c(c2O1)C(=O)c1ccccc1C3=O (centres undefined) | 27.3 µM (inactive) | 27.4 µM (inactive) | 27.9 µM (inactive) | 29.6 µM (inactive) | 40.6 µM (inactive) | 62.4 µM (inactive) | 36 µM (inactive) | – | – | 52 µM (inactive) | 21 µM (inactive) | 39.4 µM (inactive) | 22.6 µM (inactive) | 21.1 µM (inactive) | 25.8 µM (inactive) | 40.1 µM (inactive) | 17.9 µM (inactive) | 26.2 µM (inactive)
14 | COC(=O)NC(=O)c1cn(C2CCCCC2)c(=O)[nH]c1=O | > 100 µM (inactive) | > 100 µM (inactive) | > 100 µM (inactive) | > 100 µM (inactive) | > 100 µM (inactive) | – | > 100 µM (inactive) | > 100 µM (inactive) | > 100 µM (inactive) | > 100 µM (inactive) | > 100 µM (inactive) | > 100 µM (inactive) | > 100 µM (inactive) | > 100 µM (inactive) | > 100 µM (inactive) | > 100 µM (inactive) | > 100 µM (inactive) | > 100 µM (inactive)
15 | O=C(OCCOCBr)c1ccccc1 | > 100 µM (inactive) | > 100 µM (inactive) | > 100 µM (inactive) | > 100 µM (inactive) | > 100 µM (inactive) | > 100 µM (inactive) | > 100 µM (inactive) | > 100 µM (inactive) | – | > 100 µM (inactive) | > 100 µM (inactive) | > 100 µM (inactive) | > 100 µM (inactive) | > 100 µM (inactive) | > 100 µM (inactive) | > 100 µM (inactive) | > 100 µM (inactive) | > 100 µM (inactive)
16 | CC(=O)O[C@]1(C)CCC2C(C)C(=O)OC2C2C(C)[C@@H](O)CC21 (some centres undefined) | 66.5 µM (inactive) | – | 20.5 µM (inactive) | 24.6 µM (inactive) | 27.2 µM (inactive) | 67.5 µM (inactive) | 52.7 µM (inactive) | 39.5 µM (inactive) | 32.3 µM (inactive) | 15.8 µM (inactive) | 48.9 µM (inactive) | 31.5 µM (inactive) | 49.9 µM (inactive) | 13.1 µM (inactive) | 49.8 µM (inactive) | 20.8 µM (inactive) | 14.2 µM (inactive) | 30.1 µM (inactive)
17 | Cc1nn(C)c(=S)n(C)c1=O | 0.394 µM (active) | 1.29 µM (inactive) | 0.556 µM (active) | 4.1 µM (inactive) | 0.416 µM (active) | 4.83 µM (inactive) | 0.439 µM (active) | 0.83 µM (active) | 0.498 µM (active) | 1.79 µM (inactive) | 0.229 µM (active) | 24.8 µM (inactive) | 14.7 µM (inactive) | 0.275 µM (active) | – | 0.773 µM (active) | 1.31 µM (inactive) | 1.75 µM (inactive)
